Results from patent US20240043439A1, “COMPOUNDS AS C5AR INHIBITORS” (Kira Pharmaceuticals (Suzhou) Ltd., priority 2020, published 2024).

Experiments:
[1] = biological target: human C5a receptor (C5aR) (Homo sapiens (Human), UniProt P21730); test: Inhibition of C5a-C5aR binding (biotinylated human C5a, U937/C5aR cells, FACS)
How it was run: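 Binding read by flow cytometry as FITC-streptavidin signal (30 min on ice) on washed cells after a 120 min on-ice incubation of compound with biotinylated human C5a (30 nM working solution). Cells used were C5aR-transfected U937, suspended at 3×10^6 cells/ml in PBS containing 0.1% BSA.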

C5aR [2] = biological target: T1, C5aR (Homo sapiens (Human), UniProt P21730); test: Inhibition of C5a-C5aR binding determined by cell migration assay (U937/C5aR cells); assay type: cell-based; conditions: U937/C5aR cell migration towards human C5a, 180 min
Description: Migration assay was performed by using polycarbonate membrane with 3.0 µm pore (Corning). U937/C5aR cells were collected and washed twice by PBS; cells were suspended in Hank's balanced salt solution (HBSS)+1% FBS buffer at the density of 6×10^6 cells/ml. Cells were premixed with compound and added to insert well, ligand human C5a and compound were added to bottom well in order, gently mix, incubate for 30 min at 37° C., […]. Put insert plate into bottom well, migrate for 180 min at 37° C., […]. Gently remove the insert well, add 50 μl CellTiter-Glo (Promega), gently shaking for 5 min at room temperature, transfer 150 μl mixture to black plate and read luminescence intensity by
microplate reader (BioTek).

C5aR [3] = biological target: T1, C5aR; test: Calcium mobilization (U937/C5aR or HEK293/C5aR cells, FLIPR); assay type: cell-based; conditions: agonist human C5a at EC80, FLIPR
How it was run: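 FLIPR calcium-flux read-out using Fluo-4 Direct-loaded C5aR-expressing U937 or HEK293 cells stimulated with human C5a at its EC80. Compound was applied for 60 min before dye loading (50 min at 37 °C plus 10 min at room temperature) and agonist addition.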

Chain of human C5a receptor (C5aR) (P21730 whole entry): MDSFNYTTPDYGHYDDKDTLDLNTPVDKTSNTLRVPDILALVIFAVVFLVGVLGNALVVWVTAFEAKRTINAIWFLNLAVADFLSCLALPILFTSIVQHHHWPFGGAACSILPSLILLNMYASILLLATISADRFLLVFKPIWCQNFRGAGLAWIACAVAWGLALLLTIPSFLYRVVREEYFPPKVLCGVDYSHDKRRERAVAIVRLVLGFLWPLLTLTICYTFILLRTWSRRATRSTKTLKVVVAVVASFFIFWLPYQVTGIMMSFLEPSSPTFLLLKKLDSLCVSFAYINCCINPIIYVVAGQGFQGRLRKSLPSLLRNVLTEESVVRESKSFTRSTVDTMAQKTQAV
T1 sequence (P21730 whole entry): as above

| SMILES | IC50 [1] | IC50 (C5aR [2]) | IC50 (C5aR [3]) |
| --- | --- | --- | --- |
| Cc1cccc(F)c1C(=O)N1C(c2ccc(NC3CCCC3)cc2)C(C(=O)Nc2ccc3c(cnn3C)c2)C[C@@H]2CCC[C@@H]21 (relative stereo) [Compound 147, cis-2-(4-(cyclopentylamino)phenyl)-1-(2-fluoro-6-methylbenzoyl)-N-(1-methyl-1H-indazol-5-yl)octahydro-1H-cyclopenta[b]pyridine-3-carboxamide] | < 50 nM | 50 to 500 nM | 50 to 500 nM |
| Cc1cccc(F)c1C(=O)N1C(c2ccc(NC3CCOCC3)cc2)C(C(=O)Nc2ccc3c(cnn3C)c2)C[C@@H]2CCC[C@@H]21 (relative stereo) [Compound 158, cis-1-(2-fluoro-6-methylbenzoyl)-N-(1-methyl-1H-indazol-5-yl)-2-(4-((tetrahydro-2H-pyran-4-yl)amino)phenyl)octahydro-1H-cyclopenta[b]pyridine-3-carboxamide] | < 50 nM | < 50 nM | 50 to 500 nM |
| Cc1ccc(NC(=O)[C@H]2OCCN(C(=O)c3c(C)cccc3F)[C@H]2c2ccc(NC3CCCC3)cc2)cc1C(F)(F)F (relative stereo) [Compound 187, cis-3-(4-(cyclopentylamino)phenyl)-4-(2-fluoro-6-methylbenzoyl)-N-(4-methyl-3-(trifluoromethyl)phenyl)morpholine-2-carboxamide] | 50 to 500 nM | 50 to 500 nM | 2000 to 10000 nM |
| Cc1cccc(F)c1C(=O)N1C(c2ccc(NC3CCCC3)cc2)C(C(=O)Nc2cnc3cnn(C)c3c2)C[C@@H]2COC[C@@H]21 (relative stereo) [Compound 189, cis-2-(4-(cyclopentylamino)phenyl)-1-(2-fluoro-6-methylbenzoyl)-N-(1-methyl-1H-pyrazolo[4,3-b]pyridin-6-yl)octahydrofuro[3,4-b]pyridine-3-carboxamide] | 50 to 500 nM | 50 to 500 nM | 2000 to 10000 nM |
| Cc1ccc(NC(=O)[C@H]2CCCN(c3ncnc4ccccc34)[C@H]2c2ccc(NC3CCCC3)cc2)cc1C(F)(F)F [Compound 5, (2R,3S)-2-(4-(cyclopentylamino)phenyl)-N-(4-methyl-3-(trifluoromethyl)phenyl)-1-(quinazolin-4-yl)piperidine-3-carboxamide] | 50 to 500 nM | 50 to 500 nM | 2000 to 10000 nM |
| Cc1ccc(NC(=O)[C@H]2CCC3CCc4ccccc4C(=O)N3[C@H]2c2ccc(NC3CCCC3)cc2)cc1C(F)(F)F (stereo partly drawn) [Compound 44, (3S,4R)-4-(4-(cyclopentylamino)phenyl)-N-(4-methyl-3-(trifluoromethyl)phenyl)-6-oxo-1,2,3,4,6,11,12,12a-octahydrobenzo[e]pyrido[1,2-a]azepine-3-carboxamide] | 50 to 500 nM | < 50 nM | 500 to 2000 nM |
| Cc1cccc(F)c1C(=O)N1[C@@H]2CCC[C@@H]2C[C@H](C(=O)Nc2ccc(N(C)C)cc2)[C@@H]1c1ccc(NC2CCCC2)cc1 [Compound 51, (2R,3S,4aR,7aR)-2-(4-(cyclopentylamino)phenyl)-N-(4-(dimethylamino)phenyl)-1-(2-fluoro-6-methylbenzoyl)octahydro-1H-cyclopenta[b]pyridine-3-carboxamide] | < 50 nM | < 50 nM | 500 to 2000 nM |
| Cc1cccc(F)c1C(=O)N1[C@@H]2CCC[C@@H]2C[C@H](C(=O)Nc2cnn(C)c2)[C@@H]1c1ccc(NC2CCCC2)cc1 [Compound 54, (2R,3S,4aR,7aR)-2-(4-(cyclopentylamino)phenyl)-1-(2-fluoro-6-methylbenzoyl)-N-(1-methyl-1H-pyrazol-4-yl)octahydro-1H-cyclopenta[b]pyridine-3-carboxamide] | 50 to 500 nM | 50 to 500 nM | 2000 to 10000 nM |
| Cc1cccc(F)c1C(=O)N1[C@@H]2CCC[C@@H]2C[C@H](C(=O)Nc2ccc(N(C)C)cc2)[C@@H]1c1ccc(NC2CCOCC2)cc1 [Compound 94, (2R,3S,4aR,7aR)-N-(4-(dimethylamino)phenyl)-1-(2-fluoro-6-methylbenzoyl)-2-(4-((tetrahydro-2H-pyran-4-yl)amino)phenyl)octahydro-1H-cyclopenta[b]pyridine-3-carboxamide] | < 50 nM | 50 to 500 nM | 2000 to 10000 nM |
| Cc1cccc(F)c1C(=O)N1[C@@H]2CCC[C@@H]2C[C@H](C(=O)Nc2ccc3[nH]ncc3c2)[C@@H]1c1ccc(NC2CCOCC2)cc1 [Compound 96, (2R,3S,4aR,7aR)-1-(2-fluoro-6-methylbenzoyl)-N-(1H-indazol-5-yl)-2-(4-((tetrahydro-2H-pyran-4-yl)amino)phenyl)octahydro-1H-cyclopenta[b]pyridine-3-carboxamide] | < 50 nM | 50 to 500 nM | 2000 to 10000 nM |
| Cc1cccc(F)c1C(=O)N1[C@@H]2CCC[C@@H]2C[C@H](C(=O)Nc2ccc3c(ccn3C)c2)[C@@H]1c1ccc(NC2CCOCC2)cc1 [Compound 98, (2R,3S,4aR,7aR)-1-(2-fluoro-6-methylbenzoyl)-N-(1-methyl-1H-indol-5-yl)-2-(4-((tetrahydro-2H-pyran-4-yl)amino)phenyl)octahydro-1H-cyclopenta[b]pyridine-3-carboxamide] | < 50 nM | < 50 nM | 500 to 2000 nM |
| Cc1ccc(NC(=O)[C@H]2C[C@H]3COC[C@H]3N(C(=O)c3c(C)cccc3F)[C@H]2c2ccc(NC3CCCC3)cc2)cc1C(F)(F)F [Compound 119, (2R,3S,4aR,7aS)-2-(4-(cyclopentylamino)phenyl)-1-(2-fluoro-6-methylbenzoyl)-N-(4-methyl-3-(trifluoromethyl)phenyl)octahydrofuro[3,4-b]pyridine-3-carboxamide] | < 50 nM | < 50 nM | 50 to 500 nM |
| Cc1cccc(F)c1C(=O)N1[C@@H]2COC[C@@H]2C[C@H](C(=O)Nc2ccc(N(C)C)cc2)[C@@H]1c1ccc(NC2CCCC2)cc1 [Compound 124, (2R,3S,4aR,7aS)-2-(4-(cyclopentylamino)phenyl)-N-(4-(dimethylamino)phenyl)-1-(2-fluoro-6-methylbenzoyl)octahydrofuro[3,4-b]pyridine-3-carboxamide] | 50 to 500 nM | 50 to 500 nM | 2000 to 10000 nM |
| Cc1cccc(F)c1C(=O)N1[C@@H]2COC[C@@H]2C[C@H](C(=O)Nc2ccc3c(cnn3C)c2)[C@@H]1c1ccc(NC2CCCC2)cc1 [Compound 126, (2R,3S,4aR,7aS)-2-(4-(cyclopentylamino)phenyl)-1-(2-fluoro-6-methylbenzoyl)-N-(1-methyl-1H-indazol-5-yl)octahydrofuro[3,4-b]pyridine-3-carboxamide] | < 50 nM | < 50 nM | 2000 to 10000 nM |
| Cc1cccc(F)c1C(=O)N1[C@@H]2COC[C@@H]2C[C@H](C(=O)Nc2ccc3[nH]ncc3c2)[C@@H]1c1ccc(NC2CCCC2)cc1 [Compound 138, (2R,3S,4aR,7aS)-2-(4-(cyclopentylamino)phenyl)-1-(2-fluoro-6-methylbenzoyl)-N-(1H-indazol-5-yl)octahydrofuro[3,4-b]pyridine-3-carboxamide] | 50 to 500 nM | 500 to 2000 nM | 2000 to 10000 nM |
| Cc1cccc(F)c1C(=O)N1[C@@H]2COC[C@@H]2C[C@H](C(=O)Nc2ccc3c(ccn3C)c2)[C@@H]1c1ccc(NC2CCCC2)cc1 [Compound 139, (2R,3S,4aR,7aS)-2-(4-(cyclopentylamino)phenyl)-1-(2-fluoro-6-methylbenzoyl)-N-(1-methyl-1H-indol-5-yl)octahydrofuro[3,4-b]pyridine-3-carboxamide] | < 50 nM | 50 to 500 nM | 2000 to 10000 nM |
| Cc1ccc(NC(=O)[C@H]2CCCN(c3ncnc4cnccc34)[C@H]2c2ccc(NC3CCCC3)cc2)cc1C(F)(F)F [Compound 162, (2R,3S)-2-(4-(cyclopentylamino)phenyl)-N-(4-methyl-3-(trifluoromethyl)phenyl)-1-(pyrido[3,4-d]pyrimidin-4-yl)piperidine-3-carboxamide] | 50 to 500 nM | 500 to 2000 nM | 2000 to 10000 nM |
| Cc1cccc(F)c1C(=O)N1CCC[C@H](c2nc3ccc(C(C)(C)C)cc3[nH]2)[C@@H]1c1ccc(NC2CCCC2)cc1 [Compound 180, ((2R,3S)-3-(6-(tert-butyl)-1H-benzo[d]imidazol-2-yl)-2-(4-(cyclopentylamino)phenyl)piperidin-1-yl)(2-fluoro-6-methylphenyl)methanone] | 2000 to 5000 nM | < 50 nM | 2000 to 10000 nM |
